Measured values taken from publication PMC13576449, “Small-Molecule Activators of PRMT1: Discovery, SAR Analyses, and Proapoptotic Effects in Pancreatic Cancer Cells” (Journal of Medicinal Chemistry, 2026).

Experiments:
[1] = tested on: FLAG-tagged PRMT1 or His-tagged PRMT1; assay: Radioactive in vitro methyltransferase assay, autoradiography (core histones or GST-GAR); assay type: biochemical, rat, human; conditions: 100 μM compound, [14C]-methyl-SAM, vs DMSO-treated control
Description: Given that the effects of the PRMT1 activators had been screened and quantified so far using the F-PRMT assay, we next assessed the efficacy of the selected compounds in stimulating PRMT1-mediated methylation of natural substrates. To this end, we conducted in vitro methyltransferase assays using recombinant PRMT1 and core histones or GST-tagged GAR (glycine-arginine-rich domain of fibrillarin) as substrates of PRMT1. , Addition of the cofactor [^14C]-methyl-SAM allowed for the visualization of radiolabeled methyl group incorporation into the substrate proteins by SDS-PAGE and autoradiography or by liquid scintillation counting. […] It is important to note that PRMT1 methylates both H2A and H4, albeit with variable efficiency. […] As a result, the methylation signals of both histones were considered in the quantification process (Figure A, B).
As negative control (Ctrl (−)), PRMT1 enzymes and [^14C-methyl]-SAM were incubated without substrates. Subsequently, samples were separated by SDS-PAGE, blotted, and analyzed by autoradiography. Substrates (H2A, H4 or GST-GAR) and molecular weights (kDa) of the protein marker are indicated. Black lines designate composite images, assembled from the same blots and exposure times. The methylation signals of the substrates were densitometrically quantified, and expressed relative to the DMSO-treated control, as indicated by the numbers below the autoradiographs. Representative results are depicted, with quantification graphs (below the autoradiographs in A and B) summarizing biological replicates. […] Subsequently, GST-GAR was immobilized on glutathione-beads and PRMT1 activity was measured by quantifying the incorporation of ^14C-methyl groups (in cpm) using liquid scintillation counting. […] Cell viability was quantified using the CellTiter-Glo assay. Viability of compound-treated cells is shown in % relative to the viability of solvent-treated cells, which was set to 100% (mean ± SD, n = 3), and then plotted against the logarithm of the compound concentrations. Concentration-viability curves were fitted by nonlinear regression, with the half-maximal inhibitory concentration (IC50) of the compounds for PANC-1 cell viability and the coefficient of determination (R^2) indicated. […] Subsequently, whole-cell extracts were prepared and analyzed by Western blot using antibodies against ADMA, ACTIN (ACT), and VINCULIN (VINC), of which the latter two stainings served as loading controls. Molecular weights (kDa) of the protein marker are indicated. All the ADMA signals per lane were densitometrically quantified, normalized to the signal of the respective loading control and expressed relative to the DMSO-treated control, as indicated by the numbers below the immunostainings. […]

PANC-1 cells = assay: Annexin V/PI flow cytometry apoptosis assay, PANC-1; assay type: cell-based, human; conditions: TR-07 10 μM; for gemcitabine-induced apoptosis, AV/PI flow cytometry, co-treatment: TR-033 5 µM, TR-036 10 µM, ICTR-059 5 µM, after 24 h gemcitabine 1 μM, 48 h, vs gemcitabine alone
Protocol: 6 Effect of small-molecule modulators on gemcitabine-induced apoptosis and tumor growth of PDAC cells. […] After 2 h, gemcitabine (GEM) was added at increasing concentrations (10 and 25 nM) or not (−) for another incubation of 72 h. Subsequently, the luminescence-based caspase3/7 assay was performed. The activity of caspase 3/7 in treated cells was normalized to the activity measured in untreated cells (dark gray bar), which was set to 1 (mean SD, n = 6 for PANC-1 and n = 4 for PaTu8988T; *: p ≤ 0.05, **: p ≤ 0.01, ***: p ≤ 0.001, using the student t-test). […] After 24 h, gemcitabine (GEM, 1 μM) was added (+) or not (−) for another incubation of 48 h. Subsequently, the apoptotic cell fraction was quantified in % by flow cytometry using FITC-labeled Annexin V (AV) and propidium iodide (PI) staining (in B: mean ± SD, n = 6 for PANC-1 and n = 5 for PaTu8988T; **: p ≤ 0.01, ***: p ≤ 0.001, ****: p ≤ 0.0001, using the student t-test). […] Viable cells are AV/PI double-negative (AV–/PI–, lower left quadrant, Q4), early apoptotic cells are AV single-positive (AV+/PI– upper left quadrant, Q1), late apoptotic cells are AV/PI double-positive (AV+/PI+, upper right quadrant, Q2), and necrotic cells are PI single-positive (AV–/PI+, lower right quadrant, Q3). The sum of early and late apoptotic cell numbers ([…] in %) is indicated in red. D-G: The workflow of the PDAC xenograft experiments in mice is depicted in D. PANC-1 cells (2 × 10^6 cells/mouse) were subcutaneously (s.c.) injected in the right flank of female athymic nude mice. Small tumor nodules appeared 6 days post-engraftment. […] Tumor volumes were measured every second day using a digital caliper. […] At the end of the 2 weeks, mice were sacrificed and tumors were dissected (F).
For quantification of apoptosis by Fluorescence Activated Cell Sorting (FACS), PANC-1 and PaTu8988T cells were seeded in 6-well plates (250 × 10^3 cells/well) and cultured in the absence or presence of compounds. After 24 h, gemcitabine was added or not for another 48 h. After harvesting and washing, unfixed cells (0.5–1 × 10^6) were incubated with FITC-labeled Annexin V and/or PI (BD Pharmingen) according to the manufacturer’s instructions. All samples were analyzed using a BD FACSCalibur flow cytometer (BD Bioscience). Data were acquired using the CellQuestPro program and analyzed with the FlowJo (FlowJo LLC) software. […]
induced apoptosis in PDAC cell lines.
After 24 hours, gemcitabine (GEM, 1 µM) was added (+) or not
(-) for another incubation of 48 hours. Subsequently, the apoptotic cell fraction was assessed by flow cytometry using FITC-labeled Annexin V (AV) and propidium iodide (PI) staining and quantified in % (mean ± SD, n=3-4; ns: not significant, *: p ≤0.05, **: p ≤0.01, ***: p ≤0.001, ****: p ≤0.0001, using the student t-test).

| Compound | PRMT1 methylation activity toward histones H2A and H4 and GAR, autoradiography [1] | gemcitabine-induced apoptosis, AV/PI flow cytometry, co-treatment (PANC-1 cells) | apoptosis, AV/PI flow cytometry, single agent (PANC-1 cells) |
| --- | --- | --- | --- |
| (Z)-2-(2-{[(1,3-Dioxo-2,3-dihydroisoquinolin-4(1H)-ylidene)methyl]amino}phenyl)-N,N-dimethylethan-1-aminium chloride [ICTR-059] | increased | had no effect | – |
| CN(C)Cc1cccc(-c2ccc3[nH]c(=O)c4ccccc4c3c2)c1 [TR-033, 2-{3-[(Dimethylamino)methyl]phenyl}phenanthridin-6(5H)-One] | increased | rather diminished the gemcitabine-triggered cell death | – |
| CCN(CC)Cc1cccc(N/C=C2\C(=O)NC(=O)c3ccccc32)c1.Cl [TR-036, (Z )-N-(3-{[(1,3-Dioxo-2,3-dihydroisoquinoline-4(1 H )-ylidene)methyl]amino}benzyl)-N -ethylethanaminium chloride] | increased | rather diminished the gemcitabine-triggered cell death | – |
| CN(C)Cc1cccc(CN/C=C2\C(=O)NC(=O)c3ccccc32)c1.Cl [TR-07, (Z)-1-[3-({[(1,3-Dioxo-2,3-dihydroisoquinolin-4(1H)-lidene)methyl]amino}methyl)phenyl]-N,N-dimethylmethanaminium chloride] | increased | significant increase in the early and late apoptotic stages | did not significantly induce apoptosis |
